# Reference: US20070218531A1, “Micro-Organism and a Method of Producing Paclitaxel by the Use of the Same” (HAIYI BIOTECH PTE LTD, priority 2004, published 2007)
# Tested on: breast cancer cells
# Test: In vitro bioactivity analysis: killing of cancer cells by minimal MTT method
# Format: cell-based
# Details: culture medium RPMI-1640 containing 2% calf serum, compared with paclitaxel standard sample
# Source text: FIG. 10 is the chart of the effects of paclitaxel sample made by the method of present invention and standard paclitaxel sample on the killing percentage against […] cells by minimal MTT method by the use of culture medium RPMI-1640 containing 2% calf serum.
# In vitro bioactivity analysis of the fermented paclitaxel show high efficacy on killing breast cancer cells.
smiles,measurement,setting,value
"CC(=O)O[C@H]1C(=O)[C@@]2(C)[C@H]([C@H](OC(=O)c3ccccc3)[C@]3(O)C[C@H](OC(=O)[C@H](O)[C@@H](NC(=O)c4ccccc4)c4ccccc4)C(C)=C1C3(C)C)[C@]1(OC(C)=O)CO[C@@H]1C[C@@H]2O [fermented paclitaxel, 5β, 20-epoxy-1,2α,4,7β 10β 13α-hexahydroxy-tax-11-en-9-one-4,10-diacetate-2-benzoate-13-ester with (2R, 3S)-N-benzoyl-3-phenyl isoserine]","efficacy on killing breast cancer cells (killing percentage, FIG. 10)",,high efficacy
same,"efficacy on killing breast cancer cells (killing percentage, FIG. 10)",listed as paclitaxel from Examples 20-24,same effects as paclitaxel standard samples
